According to patent US20020010166A1, “CRYSTALLINE PROGESTAGENS” (priority 1997, published 2002):
“And” between values parts separate entries of the source, which are not always exact repeats. Equal values may be shown once.

Key:
[1] = Differential Scanning Calorimetry (DSC) of crystalline forms of Org 30659; format: physicochemical; conditions: determined by DSC, heating rate 5.0° C./min, from the melting peak
Description: Differential Scanning Calorimetry (DSC)
DSC curves were recorded using a Seiko DSC-120 instrument. Closed aluminium pans having a volume of 5 μl were used in combination with a nitrogen flow of 50 ml/min. The heating rate was 5.0° C./min.
DSC curves of crystalline forms of Org 30659. The horizontal axis represents the temperature in ° C. (heating), the vertical axis represents heat in μW or mW.

[2] = Relative stability of crystalline forms on heating / in boiling water; format: physicochemical; conditions: at temperatures below 155° C., including subjection to boiling water

Structure (SMILES) | thermodynamic stability, enthalpy ΔH [1] | relative stability of the crystalline form [2] | thermodynamic stability, enthalpy ΔH ([1]; listed as form C) [mJ/mg]
C#C[C@]1(O)C=C[C@H]2[C@@H]3CCC4=CC(=O)CC[C@@H]4[C@H]3C(=C)C[C@@]21C [form (A), (17α)-17-hydroxy-11-methylene-19-norpregna-4,15-diene-20-yn-3-one] | 84.3 mJ/mg and 84 mJ/mg | the most stable one | –
C#C[C@]1(O)C=C[C@H]2[C@@H]3CCC4=CC(=O)CC[C@@H]4[C@H]3C(=C)C[C@@]21C [form (B), (17α)-17-hydroxy-11-methylene-19-norpregna-4,15-diene-20-yn-3-one] | 70 mJ/mg and 70.4 mJ/mg | – | –
C#C[C@]1(O)C=C[C@H]2[C@@H]3CCC4=CC(=O)CC[C@@H]4[C@H]3C(=C)C[C@@]21C [form (C), (17α)-17-hydroxy-11-methylene-19-norpregna-4,15-diene-20-yn-3-one] | 71.9 mJ/mg | – | 71.9
